Results on 3 compounds are retold here after patent US20190175609A1, “THERAPEUTIC USES OF A C-RAF INHIBITOR” (Novartis AG, priority 2016, published 2019).

Data set [1] has as its target b-Raf (Homo sapiens, UniProt P15056). The experiment in a line: b-Raf biochemical assay. The note with it: read-out: b-Raf IC-50.
Data set [2] deals with c-Raf FL (Homo sapiens, UniProt P04049). The experiment in a line: c-Raf FL biochemical assay. As to conditions: read-out: c-Raf FL IC-50.
In data set [3] the test system is Calu-6 (KRAS Q61K), HCT116 (KRAS G13D). The experiment in a line: cell-based anti-proliferative assay, Calu-6 and HCT116. The note with it: Homo sapiens; range over Calu-6 and HCT116; read-out: IC50, inhibition of proliferation.
The subject of data set [4] is Calu-6 (KRAS Q61K) xenografts. The experiment in a line: Calu-6 xenograft in nude mice. It is filed as in vivo. On the procedure:
Female nude tumor bearing Calu6 mice, n=6 per group were randomized into treatment groups on day 17 following tumor implantation, when the average tumor volume was 180 mm3. […] Dosing volume was 10 mL/kg. Tumor volumes were collected at the time of randomization and twice weekly thereafter for the study duration.
(§1) Regressions were also achieved in a second human NSCLC model, NCI-H358, at the 200 mg/kg QD dose in mice and in the human ovarian Hey-A8 xenograft at doses as low as 30 mg/kg QD in mice.

In data set [5] the test system is Calu-6 (KRAS Q61K) xenografts. The experiment in a line: Calu-6 xenograft in nude rats. The data set is classed as in vivo.
Data set [6] deals with NCI-H358 (KRAS G12C) xenografts. The experiment in a line: NCI-H358 xenograft in mice. It is filed as in vivo. On the procedure: SCID beige female tumor bearing NCI-H358 mice, n=8 per group, were randomized into 3 groups 14 days post tumor cell inoculation with an average tumor volume range of 259.44-262.47 mm^3.
Tumor volumes were measured by digital caliper 3 times a week and body weights of all animals were recorded through the course of treatment.
as §1

The test system of data set [7] is Hey-A8 (KRAS G12D, BRAF G464E) xenografts. The experiment in a line: Hey-A8 ovarian xenograft in mice. It is filed as in vivo. On the procedure: as §1
Data set [8] concerns SKMEL30 cells (NRAS Q61K melanoma cells). The experiment in a line: SKMEL30 NRAS-mutant melanoma xenograft in nude mice. The data set is classed as in vivo. The note with it: for % regression: day 21 post-implant (9 days of treatment). On the procedure: […]. Mice were randomized into treatment groups on day 12 post implantation, when the average tumor volume was ˜200 mm^3. […] Treatments began on day 12 and continued until day 21 post implantation. Tumor volume and body weights were collected at the time of randomization and twice per week for the study duration. Tumor volume was determined by measurement with calipers and calculated using a modified ellipsoid formula, where tumor volume (TV) (mm^3)=[((1×w2)×3.14159))/6], where 1 is the longest axis of the tumor and w is perpendicular to 1. Mice were monitored for tumor growth, body weight and body condition. Animal well-being and behavior were monitored twice weekly. General health of mice was monitored daily. The anti-tumor activity was determined by assessing % T/C or % regression on day 21 post-implant (9 days of treatment).

Data set [9] deals with H727 Model. The experiment in a line: H727 model, KRASmt NSCLC xenograft. It is filed as in vivo, mice. As to conditions: FIGS. 15A, 15B, 15C (H358, Calu6, H727 models); H727: 100 mg/kg daily oral, 14 days.
The nature of data set [10]: tolerability in KRAS- and NRAS-mutant xenograft models (body weight). It is filed as in vivo. As to conditions: all xenograft models. On the procedure:
as §1

Data set [11] deals with non-small cell lung cancer (NSCLC). The experiment in a line: Phase I dose finding study of Compound A, single agent. It is filed as in vivo, human. The note with it: one NSCLC subject, 1200 mg QD, preliminary. On the procedure: Provisional doses for dose escalation can be found in the Table below. […]
In the dose expansion part, patients in Compound A single agent arm are treated with Compound A at the recommended dose and regimen selected based on the dose escalation data. This dose is expected to be safe and tolerated in adult patients in all indications included in the trial. The single agent arm consists of 3 distinct groups: KRAS- and/or BRAF-mutant NSCLC, KRAS- and/or BRAF-mutant ovarian cancer, and patients with other solid tumors (which may be advanced) harboring MAPK pathway alteration(s) such as relapsed/refractory melanoma after failure of BRAFi/MEKi combination therapy and NRAS-mutant melanoma patients.
This was further confirmed by preliminary results obtained from the clinical trial.

Data set [12] in a line: predicted human PK of Compound A.
A short description of data set [13]: cell-based anti-proliferative assay, melanoma and NSCLC lines. As to conditions: Homo sapiens, read-out: IC50, inhibition of proliferation.
Data set [14] deals with advanced NRAS-mutant melanoma. As to conditions: cited from earlier work.
[15] abbreviates: patients with NRAS-mutant melanoma.

c-Raf FL, sequence (P04049 whole entry): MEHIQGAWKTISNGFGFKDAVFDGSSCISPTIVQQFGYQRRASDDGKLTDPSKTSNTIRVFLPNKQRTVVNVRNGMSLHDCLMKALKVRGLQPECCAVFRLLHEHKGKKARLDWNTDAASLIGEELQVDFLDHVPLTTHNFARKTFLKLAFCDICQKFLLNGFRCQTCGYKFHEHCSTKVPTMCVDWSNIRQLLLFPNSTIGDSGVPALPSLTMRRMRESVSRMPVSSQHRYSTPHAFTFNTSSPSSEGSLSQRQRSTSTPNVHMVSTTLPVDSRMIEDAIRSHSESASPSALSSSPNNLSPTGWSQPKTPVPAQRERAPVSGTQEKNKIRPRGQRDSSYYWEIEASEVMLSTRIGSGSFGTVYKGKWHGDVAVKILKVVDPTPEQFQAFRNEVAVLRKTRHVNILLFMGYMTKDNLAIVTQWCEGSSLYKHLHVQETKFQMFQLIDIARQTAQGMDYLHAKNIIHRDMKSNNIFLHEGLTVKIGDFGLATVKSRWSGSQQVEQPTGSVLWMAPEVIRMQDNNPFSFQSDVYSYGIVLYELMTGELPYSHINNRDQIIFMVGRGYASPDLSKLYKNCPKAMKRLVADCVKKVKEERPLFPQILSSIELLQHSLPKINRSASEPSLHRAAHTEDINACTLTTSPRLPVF
b-Raf, sequence (P15056 2-766): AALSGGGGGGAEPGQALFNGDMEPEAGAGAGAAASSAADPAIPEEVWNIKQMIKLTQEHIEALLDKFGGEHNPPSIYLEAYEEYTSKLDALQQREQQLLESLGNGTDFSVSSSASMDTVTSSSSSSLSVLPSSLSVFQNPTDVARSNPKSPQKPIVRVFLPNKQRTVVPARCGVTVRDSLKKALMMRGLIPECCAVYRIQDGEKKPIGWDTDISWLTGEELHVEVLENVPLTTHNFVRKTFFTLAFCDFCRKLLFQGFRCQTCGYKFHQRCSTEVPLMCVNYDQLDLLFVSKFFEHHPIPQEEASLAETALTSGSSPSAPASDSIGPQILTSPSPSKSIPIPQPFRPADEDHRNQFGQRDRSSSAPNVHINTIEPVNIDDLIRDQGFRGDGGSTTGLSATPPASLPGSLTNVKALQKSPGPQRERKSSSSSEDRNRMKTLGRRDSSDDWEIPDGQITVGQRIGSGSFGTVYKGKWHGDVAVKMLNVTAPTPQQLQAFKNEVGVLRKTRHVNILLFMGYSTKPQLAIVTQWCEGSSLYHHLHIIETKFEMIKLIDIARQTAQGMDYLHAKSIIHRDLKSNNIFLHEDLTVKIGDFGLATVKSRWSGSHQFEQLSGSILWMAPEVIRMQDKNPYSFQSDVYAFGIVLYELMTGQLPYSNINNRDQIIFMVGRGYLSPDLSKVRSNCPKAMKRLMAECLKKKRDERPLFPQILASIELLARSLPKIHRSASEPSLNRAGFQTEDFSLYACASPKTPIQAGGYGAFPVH

As to `Cc1ccc(NC(=O)c2ccnc(C(F)(F)F)c2)cc1-c1cc(OCCO)nc(N2CCOCC2)c1` [COMPOUND A, N-(3-(2-(2-hydroxyethoxy)-6-morpholinopyridin-4-yl)-4-methylphenyl)-2-(trifluoromethyl)isonicotinamide], the IC50 is 0.73 nM in data set [1], 0.2 nM in data set [2], 200 to 1200 nM in [3] and 200 to 1200 nM in [13]. Also, the anti-tumor effect result in data set [4] (30 mg/kg QD, mice) is on record as “Tumor stasis”; in data set [4] (100, 200, and 300 mg/kg once daily (QD), nude mice), “regressions”; in data set [4] (Calu-6 xenograft, dose not stated), “tumor regression”; in data set [4] (Calu-6 xenograft, dose not stated, listed as Compound A) it was “tumor regressions”; in [5] (35 mg/kg QD, rats), “Tumor stasis”; in [5] (75 and 150 mg/kg QD, nude rats) it was “regressions”. The anti-tumor effect result in data set [6] (200 mg/kg QD, mice) is “Regressions”; in [6] (NCI-H358 xenograft, dose not stated), “tumor regression”; in data set [6] (NCI-H358 xenograft, dose not stated, listed as Compound A), “tumor regressions”; in [7] (Hey-A8 xenograft, dose not stated), “tumor regression”; in data set [7] (Hey-A8 xenograft, dose not stated, listed as Compound A) it was “tumor regressions”; in data set [7] (doses as low as 30 mg/kg QD, mice), “Regressions”. Further, the anti-tumor effect result in data set [8] (SK-MEL-30 melanoma model, dose not stated) was “tumor regression”. For the same compound, the “% regression” value stood at 48% in [8] (25 mg/kg bid) and 59% in [8] (100 mg/kg bid). Besides, the tolerability entry in data set [8] (25 and 100 mg/kg bid, body weight, toxicity signs, mortality) was “well tolerated”. In [9], the “single agent activity in KRASmt NSCLC models” value is on record as “showed single agent activity”. Also, the “tolerability judged by body weight loss” value in data set [10] is on record as “well tolerated”. Moreover, in data set [11], the “partial response according to RECIST” value was −35%. For the same compound, the predicted half-life in data set [12] is on record as around 9 h.
For `Cn1cnc2c(F)c(Nc3ccc(Br)cc3F)c(C(=O)NOCCO)cc21` [binimetinib], in [14] (binimetinib vs. dacarbazine), the “HR for PFS, in favor of binimetinib” value was 0.62 (0.47-0.80). Further, in [14] (setting [15]), the “discontinuation rate as a result of adverse events suspected to be related to study drug” value is recorded as 20%, the “median PFS (95% CI)” value is 2.8 (95% CI: 2.8-3.6), the overall response rate is given as 15% and the “overall survival (95% CI)” value is listed as 11.0 (95% CI: 8.9-13.6) months.
Take `CN(C)/N=N/c1[nH]cnc1C(N)=O` [dacarbazine]: in data set [14] (setting [15]), the “discontinuation rate as a result of adverse events suspected to be related to study drug” value is on record as 5%.
